How the values were obtained:
splenocytes = experiment: Spleen cytokine assay (ex-vivo splenocyte assay); assay type: in vivo, mouse; conditions: mice administered MRx0029
Method: Animals were allowed to habituate to their holding room for one week after arrival into the animal unit. They receive oral gavage (200 μL dose) of live biotherapeutics at a dose of 1×10^9 CFU for 6 consecutive days between 15:00 and 17:00. On day 7, the animals are decapitated, and tissues are harvested for experimentation.
Spleens were collected immediately in 5 mL RPMI media following sacrifice and cultured immediately. Spleen cells were first homogenised in this RPMI media, followed by 5 mins incubation with 1 ml of RBC lysis buffer (11814389001 ROCHE, Sigma). A further 10 ml of RPMI media was added, followed by 200G centrifugation for 5 mins. The supernatant was then filtered through 40 um strainer. Cells were counted and seeded (4,000,000/mL media). After 2.5 h of adaptation, cells were stimulated with lipopolysaccharide (LPS-2 μg/ml) or concanavalin A (ConA-2.5 μg/ml) for 24 h. Following stimulation, the supernatants were harvested to assess the cytokine release using Proinflammatory Panel 1 (mouse) V-PLEX Kit (Meso Scale Discovery, Maryland, USA) for TNF-α, IL-10, IL-1β, Interferon γ, CXCL2 and IL6. The analyses were performed using MESO QuickPlex SQ 120, SECTOR Imager 2400, SECTOR Imager 6000, SECTOR S 600.
The ex-vivo splenocyte assay involves challenging the splenocytes (cells isolated from the spleen—a main organ involved in immune defence), with a bacterio- or viral-mimetic challenge.

SH-SY5Y cells = assay type: cell-based
Method: SH-SY5Y cells were plated at a seeding density of 10,000 cells/well, 24 hrs later cells were treated in 100 ul of 1% FBS growth media with different concentrations (express as percentage v/v) of cell-free bacterial supernatants from stationary phase cultures for 22 h. Thereafter 10 μl of MTT solution was added and cells were incubated in CO2 incubator for 4 h, at the end of this time 100 μl of isopropanol with 0.04 HCL was added to each well. The absorbance was measured at 560 nm wavelength and a reference wavelength of 655 nm. MTT assay kit was purchased from Merck Millipore (Cat n. CT01).

MAP2 = MAP2 expression in SH-SY5Y cells (qPCR, Example 22); assay type: cell-based; conditions: 10% bacterial supernatants 17 h, vs negative control and media control
Method: SH-SY5Y were plated in 6 well plates at a density of 0.5×10^6 cells. After 24 h, cells were treated in differentiation medium (growth medium containing 1% FBS) with 10% bacterial supernatants or YCFA+ for 17 h. Cells were collected, and total RNA was isolated according to the RNeasy mini kit protocol (Qiagen). cDNA was made using the High Capacity cDNA reverse transcription kit (Applied Biosystems). Gene expression was measured by qPCR. GAPDH was used as internal control. Fold change was calculated according to the 2^(−ΔΔct) method. Primer sets used are listed as SEQ ID NOs: 2, 3, 4 and 5.

NF-κB-Ap1 promoter = experiment: NF-κB promoter activation in HEK-TLR4 reporter cells (SEAP); assay type: cell-based, human; conditions: 10% supernatant 22 h, on its own (without LPS)
Method: HEK293-Blue reporter cells stably expressing human TLR4 (HEK-TLR4), were cultured according to the manufacturer's instructions. Briefly, HEK-TLR4 cells were maintained in DMEM 4.5 g/L D-glucose supplemented with 10% (v/v) heat-inactivated FBS, 4 mM L-Glutamine, 100 U/ml penicillin, 100 μg/ml streptomycin, 100 μg/ml normocin, 1×HEK-Blue selection media.
Briefly, cells were washed with PBS, dissociated in PBS and collected in growth media. Cells were plated in 96-well plates at a density of 25,000 cells/well. To evaluate the effect of bacteria strains on LPS inducing NF-κB promoter activation, cells were treated with 10 ng/ml LPS in presence or absence of 10% supernatants (isolated as described above) and incubated in a CO2 incubator. Treatments proceeded for 22 h at 37° C. and 5% CO2, after which the detection of Secreted Embryonic Alkaline Phosphatase (SEAP) activity from cell culture supernatant was performed using QUANTI-blue solution according to manufacturer's instructions. Briefly, 20 μl of cell-free supernatant was collected and analysed for the presence of SEAP by mixing with 200 μl of sterile-filtered QUANTI-Blue detection media. After 2 h incubation at 37° C., optical density was measured at 655 nm on a microplate reader (iMark microplate, Bio-Rad).

451Lu melanoma cell line = experiment: Clonogenic survival of 451Lu cell line; assay type: cell-based; conditions: relative to both negative controls (cell line only, and YCFA+ +DMSO)
Method: Cells were trypsinized and 200 cells/well were seeded in 12-well plates. After 48 h cells were treated with the appropriate drugs in absence (YCFA+) or presence of 10% bacterial supernatant and were re-fed every three days. On day 21 after seeding, cells were fixed in ice-cold methanol and stained with Crystal Violet blue. […] were counted and survival fraction was calculated as number of colonies divided by the number of plated cells (plating efficiency) of treated divided by the plating efficiency of control.
The effects of the following treatments were assessed on the 451Lu melanoma cell line (V600E oncogenic mutation in BRAF): (1) MRx0029; (2) Vemurafenib (VEMU) in YFCA+ medium; (3) VEMU and MRx0029; (4) Azacytidine-C (Aza-c) in YFCA+ medium; (5) Aza-c and MRx0029; (6) VEMU, Aza-c and MRx0029.

[1] = system: neuron specific enolase (NSE)/enolase 2; experiment: Suppression of neuron specific enolase (NSE)/enolase 2 (Example 18); assay type: cell-based; conditions: FIG. 57
Caspase 3 (Casp3) = experiment: Caspase 3 expression in SH-SY5Y cells; assay type: cell-based; conditions: undifferentiated SH-SY5Y cells, vs control
Excerpt: The inventors measured the change in Casp3 expression in neuroblastoma cells.

GPR109a = GPR109a RNA expression in differentiated Caco-2 cells (qPCR); assay type: cell-based

Question: What does the source list for Megasphaera massiliensis MRx0029?
Answer: interferon-γ production from splenocytes (splenocytes; following a challenge with LPS): reduction; interleukin-1β production from splenocytes (splenocytes; following a challenge with LPS): reduction; interleukin-6 production from splenocytes (splenocytes; following a challenge with LPS): reduction; levels of the chemoattractant CXCL1 from splenocytes (splenocytes): increase in the levels of the chemoattractant CXCL1; reduction of cell viability (SH-SY5Y cells): approximately 70%; cell viability (SH-SY5Y cells; undifferentiated neuroblastoma cells, MRx0029 at 5% or 10%): significant, dose-dependent decrease in cell viability; MAP2 expression (MAP2): statistically-significant increase of MAP2 expression; NF-κB-Ap1 promoter activation (NF-κB-Ap1 promoter): induced NF-κB-Ap1 promoter activation; clonogenic survival (451Lu melanoma cell line): decreased clonogenic survival; neuron specific enolase (NSE)/enolase 2 [1]: statistically-significant effect suppressing; expression of Casp3 (Caspase 3 (Casp3)): increased the expression of Casp3 threefold; expression of GPR109a RNA with PMA (GPR109a; PMA plus supernatant vs PMA alone (or PMA in YCFA+ medium)): greater expression of GPR109a RNA; expression of GPR109a (GPR109a; without PMA): increased expression of GPR109a
